Test results taken from ChEMBL document CHEMBL5505993, “Identification of a ferritinophagy inducer via sinomenine modification for the treatment of colorectal cancer” (Eur J Med Chem, 2024).
Activity calls are given as the source filed them. The rule behind the calls is not given here.

Columns and labels:
[1] = Toxicity in BALB/c mouse xenografted with human HCT-116 cells assessed as histopathological changes in kidney at 60 mg/kg,ip administrated daily for 14 days by hematoxylin and eosin staining based microscopic analysis; format: organism-based; settings: in vivo, 336 h, time 14 day
HCT-116 [2] = assay: Induction of ferritin autophagy in human HCT-116 cells assessed as upregulation of ratio of LC3B-II to LC3B-I protein expression at 5 to 20 uM incubated for 12 hrs by Western blotting analysis; format: functional, cell-based; settings: dose 5-20 µM
HCT-116 [3] = assay: Induction of ferritin autophagy in human HCT-116 cells assessed as upregulation of NCOA4 protein expression at 5 to 20 uM incubated for 12 hrs by Western blotting analysis; format: functional, cell-based; settings: dose 5-20 µM
HCT-116 [4] = assay: Antitumor activity against human HCT-116 cells xenografted in BALB/c mouse assessed as reduction in tumor growth at 30 mg/kg,ip administrated daily for 14 days; format: functional, organism-based; settings: time 14.0 day
HCT-116 [5] = assay: Induction of ferroptosis in human HCT-116 cells assessed as effect on GSH level at 5 to 20 uM incubated for 12 hrs; format: functional, cell-based; settings: dose 5-20 µM
HCT-116 [6] = assay: Induction of ferritin autophagy in human HCT-116 cells assessed as upregulation of NCOA4 protein expression at 20 uM incubated for 12 hrs by immunoprecipitation assay; format: functional, cell-based
HCT-116 [7] = assay: Induction of ferritin autophagy in human HCT-116 cells assessed as upregulation of FTH1 protein expression at 20 uM incubated for 12 hrs in presence of autophagy inhibitor, Bafilomycin A1 by Western blotting analysis; format: functional, cell-based
HCT-116 [8] = assay: Antitumor activity against human HCT-116 cells xenografted in BALB/c mouse assessed as presence of pyknotic nucleus at 60 mg/kg,ip administrated daily for 14 days by hematoxylin and eosin staining based microscopic analysis; format: functional, organism-based; settings: time 14.0 day
HCT-116 [9] = assay: Antitumor activity against human HCT-116 cells xenografted in BALB/c mouse assessed as tumor cell rupture at 60 mg/kg,ip administrated daily for 14 days by hematoxylin and eosin staining based microscopic analysis; format: functional, organism-based; settings: time 14.0 day
[10] = Toxicity in BALB/c mouse xenografted with human HCT-116 cells assessed as histopathological changes in liver at 30 mg/kg,ip administrated daily for 14 days by hematoxylin and eosin staining based microscopic analysis; format: organism-based; settings: in vivo, 336 h, time 14 day
[11] = Toxicity in BALB/c mouse xenografted with human HCT-116 cells assessed as histopathological changes in spleen at 60 mg/kg,ip administrated daily for 14 days by hematoxylin and eosin staining based microscopic analysis; format: organism-based; settings: in vivo, 336 h, time 14 day
HCT-116 [12] = assay: Induction of ferroptosis in human HCT-116 cells assessed as effect on AIFM2 protein expression at 5 to 20 uM incubated for 12 hrs by Western blotting analysis; format: functional, cell-based; settings: dose 5-20 µM
[13] = Toxicity in BALB/c mouse xenografted with human HCT-116 cells assessed as change in body weight at 30 mg/kg,ip administrated daily for 14 days; format: organism-based; settings: in vivo, 336 h, time 14 day
HT-29 = assay: Cytotoxicity against human HT-29 cells assessed as inhibition of cell growth incubated for 48 hrs by CCK-8 assay; format: functional, cell-based; settings: HT-29, 48 h
[14] = Toxicity in BALB/c mouse xenografted with human HCT-116 cells assessed as histopathological changes in spleen at 30 mg/kg,ip administrated daily for 14 days by hematoxylin and eosin staining based microscopic analysis; format: organism-based; settings: in vivo, 336 h, time 14 day
HCT-116 [15] = assay: Induction of autophagy in human HCT-116 cells transfected with mRFP-GFP-LC3B assessed as colocalization of lysosome with LC3B protein at 20 uM incubated for 12 hrs by Lyso tracker red staining based confocal fluorescence microscopic analysis; format: functional, cell-based
[16] = Toxicity in BALB/c mouse xenografted with human HCT-116 cells assessed as histopathological changes in lung at 30 mg/kg,ip administrated daily for 14 days by hematoxylin and eosin staining based microscopic analysis; format: organism-based; settings: in vivo, 336 h, time 14 day
HCT-116 [17] = assay: Induction of ROS production in human HCT-116 cells incubated for 12 hrs by DCFH-DA probe based flow cytometry; format: functional, cell-based
HCT-116 [18] = assay: Induction of ferroptosis in human HCT-116 cells assessed as increase in intracellular lipid ROS accumulation at 5 to 20 uM incubated for 12 hrs by C11 BODIPY probe based fluorescence microscopic analysis; format: functional, cell-based; settings: dose 5-20 µM
HCT-116 [19] = assay: Induction of ferroptosis in human HCT-116 cells assessed as increase in intracellular ferrous ion level incubated for 12 hrs by ferroOrange probe based confocal fluorescence microscopic analysis; format: functional, cell-based
HCT-116 [20] = assay: Antitumor activity against human HCT-116 cells xenografted in BALB/c mouse assessed as reduction in tumor weight at 30 mg/kg,ip administrated daily for 14 days; format: functional, organism-based; settings: time 14.0 day
HCT-116 [21] = assay: Induction of ferroptosis in human HCT-116 cells assessed as effect on p53 protein expression at 5 to 20 uM incubated for 12 hrs by Western blotting analysis; format: functional, cell-based; settings: dose 5-20 µM
HCT-116 [22] = assay: Induction of ferroptosis in human HCT-116 cells assessed as effect on GPX4 protein expression at 5 to 20 uM incubated for 12 hrs by Western blotting analysis; format: functional, cell-based; settings: dose 5-20 µM
[23] = Toxicity in BALB/c mouse xenografted with human HCT-116 cells assessed as histopathological changes in heart at 30 mg/kg,ip administrated daily for 14 days by hematoxylin and eosin staining based microscopic analysis; format: organism-based; settings: in vivo, 336 h, time 14 day
HCT-116 [24] = assay: Induction of autophagy in human HCT-116 cells assessed as formation of autophagosomes at 20 uM incubated for 12 hrs in presence of Bafilomycin A1 by confocal microscopic analysis; format: functional, cell-based
HCT-116 [25] = assay: Antitumor activity against human HCT-116 cells xenografted in BALB/c mouse assessed as tumor cell rupture at 30 mg/kg,ip administrated daily for 14 days by hematoxylin and eosin staining based microscopic analysis; format: functional, organism-based; settings: time 14.0 day
HCT-116 [26] = assay: Antitumor activity against human HCT-116 cells xenografted in BALB/c mouse assessed as increase in 4-HNE level in tumor at 30 mg/kg,ip administrated daily for 14 days by ELISA; format: functional, organism-based; settings: time 14.0 day
HCT-116 [27] = assay: Inhibition of colony formation in human HCT-116 cells incubated for 12 hrs by crystal violet staining based analysis; format: functional, cell-based
HCT-116 [28] = assay: Antitumor activity against human HCT-116 cells xenografted in BALB/c mouse assessed as increase in LC3B expression at 60 mg/kg,ip administrated daily for 14 days by immunohistochemistry; format: functional, organism-based; settings: time 14.0 day
HCT-116 [29] = assay: Induction of ferroptosis in human HCT-116 cells assessed as increase in ferrous ion level in lysosomes at 20 uM incubated for 12 hrs by ferroOrange probe based confocal fluorescence microscopic analysis; format: functional, cell-based
HCT-116 [30] = assay: Antitumor activity against human HCT-116 cells xenografted in BALB/c mouse assessed as reduction in tumor density at 30 mg/kg,ip administrated daily for 14 days by hematoxylin and eosin staining based microscopic analysis; format: functional, organism-based; settings: time 14.0 day
HCT-116 [31] = assay: Cytotoxicity against human HCT-116 cells assessed as inhibition of cell growth incubated for 12 to 48 hrs by CCK-8 assay; format: functional, cell-based; settings: time 12-48 hrs
[32] = Toxicity in BALB/c mouse xenografted with human HCT-116 cells assessed as histopathological changes in liver at 60 mg/kg,ip administrated daily for 14 days by hematoxylin and eosin staining based microscopic analysis; format: organism-based; settings: in vivo, 336 h, time 14 day
HCT-116 [33] = assay: Induction of ferroptosis in human HCT-116 cells assessed as increase in 4-HNE level in presence of Ferrostatin-1 at 20 uM by ELISA; format: functional, cell-based

For `C=C(Cl)C(=O)NCCCCCCCCCCCC(=O)Oc1c(OC)ccc2c1[C@@]13CCN(C)[C@@H](C2)[C@H]1C=C(OC)C(=O)C3`, which Activity [1] is on record?
The Activity was “Non-Toxic”.

And the Activity (HCT-116 [2])?
The Activity was “Active”.

And the Activity (HCT-116 [3])?
Its Activity is “inactive”.

And the Activity (HCT-116 [4])?
Its Activity is “Active”.

What about the Activity (HCT-116 [5]) of the same molecule?
The Activity was “inactive”.

What about the Activity (HCT-116 [6]) of the same molecule?
Its Activity is “inactive”.

And the Activity (HCT-116 [7])?
Its Activity is “inactive”.

And the Activity (HCT-116 [8])?
Its Activity is “Active”.

And the Activity (HCT-116 [9])?
Its Activity is “Active”.

What about the Activity [10] of the same molecule?
The Activity was “Non-Toxic”.

What about the Activity [11] of the same molecule?
Its Activity is “Non-Toxic”.

And the Activity (HCT-116 [12])?
The Activity was “inactive”.

What about the Activity [13] of the same molecule?
Its Activity is “Non-Toxic”.

What about the IC50 (HT-29) of the same molecule?
The IC50 was 6.71 µM.

And the Activity [14]?
Its Activity is “Non-Toxic”.

And the Activity (HCT-116 [15])?
The Activity was “Active”.

And the Activity [16]?
The Activity was “Non-Toxic”.

What about the Activity (HCT-116 [17]) of the same molecule?
Its Activity is “Active”.

What about the Activity (HCT-116 [18]) of the same molecule?
The Activity was “Active”.

And the Activity (HCT-116 [19])?
The Activity was “Dose-Dependent Effect”.

What about the Activity (HCT-116 [20]) of the same molecule?
The Activity was “Active”.

What about the Activity (HCT-116 [21]) of the same molecule?
The Activity was “inactive”.

And the Activity (HCT-116 [22])?
The Activity was “inactive”.

And the Activity [23]?
The Activity was “Non-Toxic”.

What about the Activity (HCT-116 [24]) of the same molecule?
Its Activity is “inactive”.

What about the Activity (HCT-116 [25]) of the same molecule?
The Activity was “Active”.

And the Activity (HCT-116 [26])?
The Activity was “Active”.

And the inhibition (HCT-116 [27])?
Its inhibition is “Dose-Dependent Effect”.

And the Activity (HCT-116 [28])?
Its Activity is “Active”.

And the Activity (HCT-116 [29])?
The Activity was “Active”.

What about the Activity (HCT-116 [30]) of the same molecule?
Its Activity is “Active”.

And the Activity (HCT-116 [31])?
The Activity was “Dose-Dependent Effect”.

What about the Activity [32] of the same molecule?
The Activity was “Non-Toxic”.

What about the Activity (HCT-116 [33]) of the same molecule?
Its Activity is “inactive”.
